Publication PMC9736874, “Development of Hydroxamate Derivatives Containing a Pyrazoline Moiety as APN Inhibitors to Overcome Angiogenesis” (Molecules, 2022)

Assays:
[1] = target: T1, porcine kidney aminopeptidase N (APN) (Sus scrofa, UniProt P15145); test: Enzymatic inhibition assay against APN in vitro (L-Leu-p-nitroanilide substrate); assay type: biochemical; details: soluble APN from porcine kidney microsomal, 37 °C, 30 min; triplicate, mean ± SD
T1 construct: purchased Enzo Life Sciences; host or cells: porcine kidney microsomes (tissue-derived)
T1 sequence (P15145 1-963): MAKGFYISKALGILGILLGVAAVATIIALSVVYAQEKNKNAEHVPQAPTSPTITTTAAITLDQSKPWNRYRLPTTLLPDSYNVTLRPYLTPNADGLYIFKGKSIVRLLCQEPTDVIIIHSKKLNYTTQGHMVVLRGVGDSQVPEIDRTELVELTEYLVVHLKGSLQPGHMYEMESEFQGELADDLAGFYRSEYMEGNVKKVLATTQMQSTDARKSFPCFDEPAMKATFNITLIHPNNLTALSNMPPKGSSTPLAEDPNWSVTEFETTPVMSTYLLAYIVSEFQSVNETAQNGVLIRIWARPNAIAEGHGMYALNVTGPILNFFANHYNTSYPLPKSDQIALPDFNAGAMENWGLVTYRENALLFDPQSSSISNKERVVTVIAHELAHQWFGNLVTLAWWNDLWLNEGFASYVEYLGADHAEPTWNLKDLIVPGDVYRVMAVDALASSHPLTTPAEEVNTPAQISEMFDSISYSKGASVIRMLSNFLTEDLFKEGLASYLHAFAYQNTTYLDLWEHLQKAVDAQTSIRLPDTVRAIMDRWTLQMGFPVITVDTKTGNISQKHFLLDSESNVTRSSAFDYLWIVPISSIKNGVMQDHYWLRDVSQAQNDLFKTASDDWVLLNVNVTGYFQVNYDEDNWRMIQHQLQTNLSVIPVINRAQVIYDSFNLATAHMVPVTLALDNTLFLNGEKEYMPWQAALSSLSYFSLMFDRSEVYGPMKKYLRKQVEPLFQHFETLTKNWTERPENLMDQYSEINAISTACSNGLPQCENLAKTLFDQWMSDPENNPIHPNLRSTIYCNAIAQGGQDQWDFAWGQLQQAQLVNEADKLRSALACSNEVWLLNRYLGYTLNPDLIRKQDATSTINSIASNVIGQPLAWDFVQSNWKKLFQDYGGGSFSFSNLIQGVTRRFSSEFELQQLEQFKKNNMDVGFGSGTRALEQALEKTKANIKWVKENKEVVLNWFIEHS
Procedure: The enzymatic inhibitory activities of target compounds were evaluated using L-Leu-p-nitroanilide (Sigma-Aldrich, St. Louis, MO, USA) as substrate and soluble APN from porcine kidney microsomal (Enzo Life Sciences, Farmingdale, NY, USA) as enzyme. Firstly, the substrate was dissolved in DMSO to a concentration of 16 mmol/L and the enzyme was dissolved in buffer solution of 50 mM PBS (pH = 7.2) for a concentration of 0.15 IU/L. Subsequently, inhibitors (40 μL) and PBS (145 μL) were added into the 96-well plates, followed by the addition of substrate (5 μL) and enzyme (10 μL). After incubation at 37 °C for 30 min, the absorbance values were measured at 405 nm with a plate reader (Varioskan, Thermo Fisher Scientific, Waltham, MA, USA).

Structure (SMILES) | IC50 [1] [nM] | melting point [°C]
COc1cccc(OC)c1C1=NN(C(N)=O)C(c2ccccc2OCC(=O)NO)C1 (centres unmarked) [Compound 14n, 3-(2,6-Dimethoxyphenyl)-5-(2-(2-(hydroxyamino)-2-oxoethoxy)phenyl)-4,5-dihydro-1H-pyrazole-1-carboxamide] | 440 ± 30 | 212 to 214
NC(=O)N1N=C(c2ccccc2)CC1c1ccccc1OCC(=O)NO (centres unmarked) [Compound 13b, reference compound] | 160 ± 10 | 
NC(=O)N1N=C(c2ccccc2OCc2ccccc2)CC1c1ccccc1OCC(=O)NO (centres unmarked) [Compound 14bb, 3-(2-(Benzyloxy)phenyl)-5-(2-(2-(hydroxyamino)-2-oxoethoxy)phenyl)-4,5-dihydro-1H-pyrazole-1-carboxamide] | 15 ± 1 | 176 to 178
NC(=O)N1N=C(c2ccccc2I)CC1c1c(Br)cccc1OCC(=O)NO (centres unmarked) [Compound 14x, 5-(2-Bromo-6-(2-(hydroxyamino)-2-oxoethoxy)phenyl)-3-(2-iodophenyl)-4,5-dihydro-1H-pyrazole-1-carboxamide] | 90 ± 5 | 132 to 134
CC(=O)N1N=C(c2ccccc2I)CC1c1c(Cl)cccc1OCC(=O)NO (centres unmarked) [Compound 14y, 2-(2-(1-Acetyl-3-(2-iodophenyl)-4,5-dihydro-1H-pyrazol-5-yl)-3-chlorophenoxy)-N-hydroxyacetamide] | 23 ± 1 | 168 to 170
CC(=O)N1N=C(c2ccc(Cl)cc2Cl)CC1c1ccccc1OCC(=O)NO (centres unmarked) [Compound 14l, 2-(2-(1-Acetyl-3-(2,4-dichlorophenyl)-4,5-dihydro-1H-pyrazol-5-yl)phenoxy)-N-hydroxyacetamide] | 580 ± 40 | 128 to 130
CC(=O)N1N=C(c2cccc(Br)c2)CC1c1ccccc1OCC(=O)NO (centres unmarked) [Compound 14b, 2-(2-(1-Acetyl-3-(3-bromophenyl)-4,5-dihydro-1H-pyrazol-5-yl)phenoxy)-N-hydroxy acetamide] | 320 ± 30 | 152 to 154
NC(=O)N1N=C(c2ccccc2OCc2cccc(Br)c2)CC1c1ccccc1OCC(=O)NO (centres unmarked) [Compound 14ff, 3-(2-((3-Bromobenzyl)oxy)phenyl)-5-(2-(2-(hydroxyamino)-2-oxoethoxy)phenyl)-4,5-dihydro-1H-pyrazole-1-carboxamide] | 58 ± 3 | 120 to 122
CC(=O)N1N=C(c2ccccc2I)CC1c1ccc(Br)cc1OCC(=O)NO (centres unmarked) [Compound 14s, 2-(2-(1-Acetyl-3-(2-iodophenyl)-4,5-dihydro-1H-pyrazol-5-yl)-5-bromophenoxy)-N-hydroxyacetamide] | 2100 ± 200 | 168 to 170
NC(=O)N1N=C(c2ccccc2I)CC1c1cccc(Br)c1OCC(=O)NO (centres unmarked) [Compound 14r, 5-(3-Bromo-2-(2-(hydroxyamino)-2-oxoethoxy)phenyl)-3-(2-iodophenyl)-4,5-dihydro-1H-pyrazole-1-carboxamide] | 3400 ± 300 | 140 to 142
NC(=O)N1N=C(c2ccccc2I)CC1c1ccc(Br)cc1OCC(=O)NO (centres unmarked) [Compound 14t, 5-(4-Bromo-2-(2-(hydroxyamino)-2-oxoethoxy)phenyl)-3-(2-iodophenyl)-4,5-dihydro-1H-pyrazole-1-carboxamide] | 1600 ± 100 | 196 to 198
COc1cccc(C2=NN(C(C)=O)C(c3ccccc3OCC(=O)NO)C2)c1 (centres unmarked) [Compound 14e, 2-(2-(1-Acetyl-3-(3-methoxyphenyl)-4,5-dihydro-1H-pyrazol-5-yl)phenoxy)-N-hydroxy acetamide] | 370 | 170 to 172
CC(=O)N1N=C(c2ccccc2I)CC1c1c(Br)cccc1OCC(=O)NO (centres unmarked) [Compound 14w, 2-(2-(1-Acetyl-3-(2-iodophenyl)-4,5-dihydro-1H-pyrazol-5-yl)-3-bromophenoxy)-N-hydroxyacetamide] | 24 ± 1 | 152 to 154
NC(=O)N1N=C(c2c(Cl)cccc2Cl)CC1c1ccccc1OCC(=O)NO (centres unmarked) [Compound 13c, reference compound] | 59 ± 2 | 
CC(=O)N1N=C(c2ccccc2I)CC1c1cccc(Br)c1OCC(=O)NO (centres unmarked) [Compound 14q, 2-(2-(1-Acetyl-3-(2-iodophenyl)-4,5-dihydro-1H-pyrazol-5-yl)-6-bromophenoxy)-N-hydroxyacetamide] | 3500 ± 200 | 96 to 98
CC(=O)N1N=C(c2ccccc2OCc2ccc(Br)cc2)CC1c1ccccc1OCC(=O)NO (centres unmarked) [Compound 14gg, 2-(2-(1-Acetyl-3-(2-((4-bromobenzyl)oxy)phenyl)-4,5-dihydro-1H-pyrazol-5-yl)phenoxy)-N-hydroxyacetamide] | 560 ± 40 | 96 to 98
COc1cccc(OC)c1C1=NN(C(C)=O)C(c2ccccc2OCC(=O)NO)C1 (centres unmarked) [Compound 14m, 2-(2-(1-Acetyl-3-(2,6-dimethoxyphenyl)-4,5-dihydro-1H-pyrazol-5-yl)phenoxy)-N-hydroxyacetamide] | 200 ± 10 | 178 to 180
NC(=O)N1N=C(c2ccccc2OCc2ccccc2Br)CC1c1ccccc1OCC(=O)NO (centres unmarked) [Compound 14dd, 3-(2-((2-Bromobenzyl)oxy)phenyl)-5-(2-(2-(hydroxyamino)-2-oxoethoxy)phenyl)-4,5-dihydro-1H-pyrazole-1-carboxamide] | 230 ± 10 | 92 to 94

Continued, values first:

IC50 [1] [nM] | melting point [°C] | Structure (SMILES)
15 ± 1 | 174 to 176 | CC(=O)N1N=C(c2ccccc2I)CC1c1ccccc1OCC(=O)NO (centres unmarked) [Compound 14i, 2-(2-(1-Acetyl-3-(2-iodophenyl)-4,5-dihydro-1H-pyrazol-5-yl)phenoxy)-N-hydroxy acetamide]
68 ± 4 | 82 to 84 | CC(=O)N1N=C(c2ccccc2OCc2ccccc2Br)CC1c1ccccc1OCC(=O)NO (centres unmarked) [Compound 14cc, 2-(2-(1-Acetyl-3-(2-((2-bromobenzyl)oxy)phenyl)-4,5-dihydro-1H-pyrazol-5-yl)phenoxy)-N-hydroxyacetamide]
17 ± 1 | 162 to 164 | CC(=O)N1N=C(c2ccccc2OCc2ccccc2)CC1c1ccccc1OCC(=O)NO (centres unmarked) [Compound 14aa, 2-(2-(1-Acetyl-3-(2-(benzyloxy)phenyl)-4,5-dihydro-1H-pyrazol-5-yl)phenoxy)-N-hydroxyacetamide]
210 ± 10 | 170 to 172 | CC(=O)N1N=C(c2ccccc2C)CC1c1ccccc1OCC(=O)NO (centres unmarked) [Compound 14k, 2-(2-(1-Acetyl-3-(o-tolyl)-4,5-dihydro-1H-pyrazol-5-yl)phenoxy)-N-hydroxyacetamide]
29 ± 2 | 166 to 168 | CC(=O)N1N=C(c2ccccc2Cl)CC1c1ccccc1OCC(=O)NO (centres unmarked) [Compound 14h, 2-(2-(1-Acetyl-3-(2-chlorophenyl)-4,5-dihydro-1H-pyrazol-5-yl)phenoxy)-N-hydroxy acetamide]
31 ± 2 | 164 to 166 | CC(=O)N1N=C(c2ccccc2OCc2cccc(Br)c2)CC1c1ccccc1OCC(=O)NO (centres unmarked) [Compound 14ee, 2-(2-(1-Acetyl-3-(2-((3-bromobenzyl)oxy)phenyl)-4,5-dihydro-1H-pyrazol-5-yl)phenoxy)-N-hydroxyacetamide]
46 ± 3 | 162 to 164 | CC(=O)N1N=C(c2ccccc2Br)CC1c1ccccc1OCC(=O)NO (centres unmarked) [Compound 14a, 2-(2-(1-Acetyl-3-(2-bromophenyl)-4,5-dihydro-1H-pyrazol-5-yl)phenoxy)-N-hydroxy acetamide]
310 ± 20 | 198 to 200 | CC(=O)N1N=C(c2cccc3ccccc23)CC1c1ccccc1OCC(=O)NO (centres unmarked) [Compound 14p, 2-(2-(1-Acetyl-3-(naphthalen-1-yl)-4,5-dihydro-1H-pyrazol-5-yl)phenoxy)-N-hydroxy acetamide]
320 ± 10 |  | CC(=O)N1N=C(c2ccccc2)CC1c1ccccc1OCC(=O)NO (centres unmarked) [Compound 13a, reference compound]
250 ± 10 | 176 to 178 | CC(=O)N1N=C(c2ccccc2F)CC1c1ccccc1OCC(=O)NO (centres unmarked) [Compound 14g, 2-(2-(1-Acetyl-3-(2-fluorophenyl)-4,5-dihydro-1H-pyrazol-5-yl)phenoxy)-N-hydroxy acetamide]
